Laboratory results as given in patent US10988478B1, “Pyrazolo[1,5a]pyrimidine derivatives as IRAK4 modulators” (Genentech, Inc., priority 2015, dated 2021).

molecular target: human IRAK4 (Homo sapiens (Human), UniProt Q9NWZ3); assay: IRAK4 kinase inhibition, Transcreener fluorescence polarization ADP assay; type: biochemical; details: recombinant full-length His6-IRAK4; 125 uM ATP; 90 min; Ki computed using ATP Km 642 uM
Method: Compounds were assayed for inhibition of human IRAK4 and IRAK1 catalytic activity using recombinant enzyme produced from insect cells. Full-length IRAK4 protein, carrying an N-terminal His6-Tag, was obtained from Life Technologies (Carlsbad, Calif., USA). The IRAK1 construct was produced internally and was comprised of IRAK1 residues Arg194 to Ser712, preceded by an NH2-terminal His6 tag and the coding sequence for glutathione-S-transferase.

Chain of human IRAK4 (Q9NWZ3 whole entry, the tested form may be a part): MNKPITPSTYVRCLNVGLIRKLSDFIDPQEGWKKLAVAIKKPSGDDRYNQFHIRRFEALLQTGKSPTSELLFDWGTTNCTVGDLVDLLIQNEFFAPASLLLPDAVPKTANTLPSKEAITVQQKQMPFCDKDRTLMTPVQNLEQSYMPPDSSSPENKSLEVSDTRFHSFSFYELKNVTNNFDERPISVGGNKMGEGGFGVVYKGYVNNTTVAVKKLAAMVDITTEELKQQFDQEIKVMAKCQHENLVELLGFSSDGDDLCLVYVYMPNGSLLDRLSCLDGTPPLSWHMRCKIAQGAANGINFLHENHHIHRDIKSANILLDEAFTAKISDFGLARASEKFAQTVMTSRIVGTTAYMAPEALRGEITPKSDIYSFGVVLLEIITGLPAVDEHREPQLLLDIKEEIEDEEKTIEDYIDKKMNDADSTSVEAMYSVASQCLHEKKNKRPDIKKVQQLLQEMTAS

Ki [nM]	Structure (SMILES)
240	Cn1ccc(-c2cc3c(cc2NC(=O)c2cnn4cccnc24)CC(C)(C)O3)n1 [Example 489, N-(2,2-dimethyl-6-(1-methyl-1H-pyrazol-3-yl)-2,3-dihydrobenzofuran-5-yl)pyrazolo[1,5-a]pyrimidine-3-carboxamide]
980	CC1(C)Cc2cc(NC(=O)c3cnn4cc(C5CNC5)cnc34)c(N3CCOCC3)cc2O1 [Example 490, 6-(Azetidin-3-yl)-N-(2,2-dimethyl-6-morpholino-3H-benzofuran-5-yl)pyrazolo[1,5-a]pyrimidine-3-carboxamide]
1.1	CC1(C)Cc2cc(NC(=O)c3cnn4cc(C(N)=O)cnc34)c(N3CCOCC3)cc2O1 [Example 491, N^3-(2,2-dimethyl-6-morpholino-2,3-dihydrobenzofuran-5-yl)pyrazolo[1,5-a]pyrimidine-3,6-dicarboxamide]
9.1	CNC(=O)c1cnc2c(C(=O)Nc3cc4c(cc3N3CCOCC3)C(=O)N(C[C@@H](F)C(C)(C)O)C4)cnn2c1 [Example 492, N3-[2-[(2R)-2-Fluoro-3-hydroxy-3-methyl-butyl]-6-morpholino-1-oxo-isoindolin-5-yl]-N^6-methyl-pyrazolo[1,5-a]pyrimidine-3,6-dicarboxamide]
43	CC1(C)Cc2cc(NC(=O)c3cnn4cc(OC(F)F)cnc34)c(N3CCOCC3)cc2O1 [Example 493, 6-(difluoromethoxy)-N-(2,2-dimethyl-6-morpholino-2,3-dihydrobenzofuran-5-yl)pyrazolo[1,5-a]pyrimidine-3-carboxamide]
0.83	CC(C)(O)[C@H](F)CN1Cc2cc(NC(=O)c3cnn4cccnc34)c(OCC3CC3)cc2C1=O [Example 496, N-[6-(Cyclopropylmethoxy)-2-[(2R)-2-fluoro-3-hydroxy-3-methyl-butyl]-1-oxo-isoindolin-5-yl]pyrazolo[1,5-a]pyrimidine-3-carboxamide]
2.6	C[C@H]1CN(C)CC[C@]12Cc1cc(NC(=O)c3cnn4cccnc34)c(N3CCOCC3)cc1O2 [Example 497, N-((2R,3'S)-1′,3′-dimethyl-6-morpholino-3H-spiro[benzofuran-2,4′-piperidin]-5-yl)pyrazolo[1,5-a]pyrimidine-3-carboxamide]
29	C[C@@H]1CN(C)CC[C@]12Cc1cc(NC(=O)c3cnn4cccnc34)c(N3CCOCC3)cc1O2 [Example 498, N-((2R,3′R)-1′,3′-dimethyl-6-morpholino-3H-spiro[benzofuran-2,4′-piperidin]-5-yl)pyrazolo[1,5-a]pyrimidine-3-carboxamide]
30	CC1(C)Cc2cc(NC(=O)c3cnn4cccnc34)c(N3CCOCC3)cc2C1=O [Example 499, N-(2,2-Dimethyl-6-morpholino-1-oxo-2,3-dihydro-1H-inden-5-yl)pyrazolo[1,5-a]pyrimidine-3-carboxamide]
84	CC(C)(O)[C@H](F)CN1Cc2cc(NC(=O)c3cnn4cccnc34)ccc2C1=O [Example 500, N-[2-[(2R)-2-Fluoro-3-hydroxy-3-methyl-butyl]-1-oxo-isoindolin-5-yl]pyrazolo[1,5-a]pyrimidine-3-carboxamide]
6.9	O=C(Nc1cc2c(cc1N1CCOCC1)OC1(CCN(CCF)CC1)C2)c1cnn2cccnc12 [Example 501, N-(1′-(2-fluoroethyl)-6-morpholino-3H-spiro[benzofuran-2,4′-piperidin]-5-yl)pyrazolo[1,5-a]pyrimidine-3-carboxamide]
5.8	CCN1CCC2(CC1)Cc1cc(NC(=O)c3cnn4cccnc34)c(N3CCOCC3)cc1O2 [Example 502, N-(1′-ethyl-6-morpholino-3H-spiro[benzofuran-2,4′-piperidin]-5-yl)pyrazolo[1,5-a]pyrimidine-3-carboxamide]
4	CC1(C)Cc2cc(NC(=O)c3cnn4cccnc34)c(N3CCN(Cc4ncc[nH]4)CC3)cc2O1 [Example 503, N-(6-(4-((1H-imidazol-2-yl)methyl)piperazin-1-yl)-2,2-dimethyl-2,3-dihydrobenzofuran-5-yl)pyrazolo[1,5-a]pyrimidine-3-carboxamide]
3.1	CC1(C)Cc2cc(NC(=O)c3cnn4cccnc34)c(N3CCN(Cc4cnoc4)CC3)cc2O1 [Example 504, N-(6-(4-(isoxazol-4-ylmethyl)piperazin-1-yl)-2,2-dimethyl-2,3-dihydrobenzofuran-5-yl)pyrazolo[1,5-a]pyrimidine-3-carboxamide]
5.2	CC1(C)Cc2cc(NC(=O)c3cnn4cccnc34)c(N3CCN(Cc4ccn[nH]4)CC3)cc2O1 [Example 505, N-(6-(4-((1H-pyrazol-5-yl)methyl)piperazin-1-yl)-2,2-dimethyl-2,3-dihydrobenzofuran-5-yl)pyrazolo[1,5-a]pyrimidine-3-carboxamide]
5.1	Cn1cncc1CN1CCN(c2cc3c(cc2NC(=O)c2cnn4cccnc24)CC(C)(C)O3)CC1 [Example 506, N-(2,2-dimethyl-6-(4-((1-methyl-1H-imidazol-5-yl)methyl)piperazin-1-yl)-2,3-dihydrobenzofuran-5-yl)pyrazolo[1,5-a]pyrimidine-3-carboxamide]
3.2	Cc1nc(CN2CCN(c3cc4c(cc3NC(=O)c3cnn5cccnc35)CC(C)(C)O4)CC2)c[nH]1 [Example 507, N-(2,2-dimethyl-6-(4-((2-methyl-1H-imidazol-4-yl)methyl)piperazin-1-yl)-2,3-dihydrobenzofuran-5-yl)pyrazolo[1,5-a]pyrimidine-3-carboxamide]
43	CC(C)N1CCN(c2cc3c(cc2NC(=O)c2cnn4cccnc24)CC(C)(C)O3)CC1 [Example 508, N-(6-(4-isopropylpiperazin-1-yl)-2,2-dimethyl-2,3-dihydrobenzofuran-5-yl)pyrazolo[1,5-a]pyrimidine-3-carboxamide]
1.1	CC1(C)Cc2cc(NC(=O)c3cnn4cccnc34)c(N3CCN(Cc4c[nH]cn4)CC3)cc2O1 [Example 509, N-(6-(4-((1H-imidazol-4-yl)methyl)piperazin-1-yl)-2,2-dimethyl-2,3-dihydrobenzofuran-5-yl)pyrazolo[1,5-a]pyrimidine-3-carboxamide]
44	C[C@]1(O)COc2cc(N3CCN(CC(F)F)CC3)c(NC(=O)c3cnn4cccnc34)cc2C1 [Example 510, (R)—N-(7-(4-(2,2-difluoroethyl)piperazin-1-yl)-3-hydroxy-3-methylchroman-6-yl)pyrazolo[1,5-a]pyrimidine-3-carboxamide]
150	CC1(C)Cc2cc(NC(=O)c3cnn4ccc(C[C@@H]5CNC(=O)C5)nc34)c(C3CC3)cc2O1 [Example 512, (S)—N-(6-Cyclopropyl-2,2-dimethyl-2,3-dihydrobenzofuran-5-yl)-5-((5-oxopyrrolidin-3-yl)methyl)pyrazolo[1,5-a]pyrimidine-3-carboxamide]
210	CC1(C)Cc2cc(NC(=O)c3cnn4ccc(C[C@H]5CNC(=O)C5)nc34)c(C3CC3)cc2O1 [Example 513, (R)—N-(6-cyclopropyl-2,2-dimethyl-2,3-dihydrobenzofuran-5-yl)-5-((5-oxopyrrolidin-3-yl)methyl)pyrazolo[1,5-a]pyrimidine-3-carboxamide]
810	CC1(C)Cc2cc(NC(=O)c3cnn4ccc(C[C@H]5CCNC5=O)nc34)c(C3CC3)cc2O1 [Example 514, (R)—N-(6-cyclopropyl-2,2-dimethyl-2,3-dihydrobenzofuran-5-yl)-5-((2-oxopyrrolidin-3-yl)methyl)pyrazolo[1,5-a]pyrimidine-3-carboxamide]
420	CC1(C)Cc2cc(NC(=O)c3cnn4ccc(C[C@@H]5CCNC5=O)nc34)c(C3CC3)cc2O1 [Example 515, (S)—N-(6-cyclopropyl-2,2-dimethyl-2,3-dihydrobenzofuran-5-yl)-5-((2-oxopyrrolidin-3-yl)methyl)pyrazolo[1,5-a]pyrimidine-3-carboxamide]
130	CP(C)(=O)c1ccc(NC(=O)c2cnn3cccnc23)c(N2CCOCC2)c1 [Example 518, N-(4-dimethylphosphoryl-2-morpholino-phenyl)pyrazolo[1,5-a]pyrimidine-3-carboxamide]
39	C[C@@]1(CC#N)COc2cc(N3CCOCC3)c(NC(=O)c3cnn4cccnc34)cc2C1 [Example 519, N-[(3R)-3-(cyanomethyl)-3-methyl-7-morpholino-chroman-6-yl]pyrazolo[1,5-a]pyrimidine-3-carboxamide]
1.1	C[C@]1(CC#N)COc2cc(N3CCOCC3)c(NC(=O)c3cnn4cccnc34)cc2C1 [Example 520, N-[(3S)-3-(cyanomethyl)-3-methyl-7-morpholino-chroman-6-yl]pyrazolo[1,5-a]pyrimidine-3-carboxamide]
4	CC(C)(O)[C@H](F)CN1Cc2cc(NC(=O)c3cnn4cccnc34)c(Cl)cc2C1=O [Example 521, N-[6-chloro-2-[(2R)-2-fluoro-3-hydroxy-3-methyl-butyl]-1-oxo-isoindolin-5-yl]pyrazolo[1,5-a]pyrimidine-3-carboxamide]
3.4	CC(C)(O)[C@@]1(C)Cc2cc(NC(=O)c3cnn4cccnc34)c(N3CCN(Cc4c[nH]cn4)CC3)cc2O1 [Example 522, N-[(2R)-2-(1-Hydroxy-1-methyl-ethyl)-6-[4-(1H-imidazol-4-ylmethyl)piperazin-1-yl]-2-methyl-3H-benzofuran-5-yl]pyrazolo[1,5-a]pyrimidine-3-carboxamide]
4.4	CC(C)(O)[C@]1(C)Cc2cc(NC(=O)c3cnn4cccnc34)c(N3CCN(Cc4c[nH]cn4)CC3)cc2O1 [Example 523, N-[(2S)-2-(1-hydroxy-1-methyl-ethyl)-6-[4-(1H-imidazol-4-ylmethyl)piperazin-1-yl]-2-methyl-3H-benzofuran-5-yl]pyrazolo[1,5-a]pyrimidine-3-carboxamide]

Structure (SMILES)	Ki [nM]
CC(C)(O)[C@]1(C)Cc2cc(NC(=O)c3cnn4cccnc34)c(N3CCN(CC(N)=O)CC3)cc2O1 [Example 524, N-[(2S)-6-[4-(2-amino-2-oxo-ethyl)piperazin-1-yl]-2-(1-hydroxy-1-methyl-ethyl)-2-methyl-3H-benzofuran-5-yl]pyrazolo[1,5-a]pyrimidine-3-carboxamide]	4.1
